Data as given in the NIST ThermoML archive (doi:10.1021/je060271a).

Conditions: 283.15 K, Liquid, Vibrating tube method

CCCCCC(=O)OCC(COC(=O)CCCCC)(COC(=O)CCCCC)COC(=O)CCCCC [pentaerythritol tetrahexanoate]
Conditions | mass density [kg/m3]
7124.1 kPa | 1008.3
7135 kPa | 1008.3
7146.2 kPa | 1008.3
7159.7 kPa | 1008.3
7170.9 kPa | 1008.3
7182 kPa | 1008.3
7193.4 kPa | 1008.3
7206.5 kPa | 1008.3
7217.2 kPa | 1008.4
7228.4 kPa | 1008.3
7241.6 kPa | 1008.4
7252.8 kPa | 1008.4
7264.2 kPa | 1008.4
7277.8 kPa | 1008.3
7289 kPa | 1008.4
7300.4 kPa | 1008.3
7311.8 kPa | 1008.3
7323.4 kPa | 1008.3
7336.9 kPa | 1008.4
7348.4 kPa | 1008.4
7360.2 kPa | 1008.3
7373.8 kPa | 1008.5
7385.4 kPa | 1008.3
7396.9 kPa | 1008.4
7408.7 kPa | 1008.5
7422.7 kPa | 1008.5
7434.6 kPa | 1008.5
7446.5 kPa | 1008.5
7458.6 kPa | 1008.5
7472.7 kPa | 1008.5
7484.8 kPa | 1008.6
7496.7 kPa | 1008.4
7508.6 kPa | 1008.6
7523.2 kPa | 1008.5
7534.9 kPa | 1008.5
7547.3 kPa | 1008.6
7561.6 kPa | 1008.5
7573.6 kPa | 1008.5
7586 kPa | 1008.5
7598.2 kPa | 1008.6
7613.2 kPa | 1008.4
7625.9 kPa | 1008.6
7637.9 kPa | 1008.6
7650.7 kPa | 1008.5
7665 kPa | 1008.6
7678 kPa | 1008.5
7690.4 kPa | 1008.6
7705.3 kPa | 1008.7
7717.7 kPa | 1008.6
7730.5 kPa | 1008.7
7742.7 kPa | 1008.6
7758.4 kPa | 1008.7
7771.4 kPa | 1008.7
7784.3 kPa | 1008.7
7798.4 kPa | 1008.5
7811.2 kPa | 1008.7
7826.7 kPa | 1008.7
7839.6 kPa | 1008.8
7852.8 kPa | 1008.8
7866 kPa | 1008.8
7881.9 kPa | 1008.7
7895 kPa | 1008.7
7908.3 kPa | 1008.7
7924.2 kPa | 1008.7
7937.3 kPa | 1008.7
7950.8 kPa | 1008.6
7967.7 kPa | 1008.7
7978.6 kPa | 1008.7
7994.5 kPa | 1008.8
8008.3 kPa | 1008.8
8022.4 kPa | 1008.7
8036.2 kPa | 1008.9
8052.3 kPa | 1008.8
8065.9 kPa | 1008.8
8080.1 kPa | 1008.9
8094.4 kPa | 1008.8
8110.8 kPa | 1008.9
8125.1 kPa | 1008.8
8139.2 kPa | 1008.8
8153.4 kPa | 1008.9
8167.7 kPa | 1008.8
8184.9 kPa | 1008.9
8199.1 kPa | 1008.8
8213.4 kPa | 1008.9
8230.8 kPa | 1008.9
8245.5 kPa | 1008.9
8259.8 kPa | 1008.8
8274.5 kPa | 1009
8291.9 kPa | 1008.9
8306.6 kPa | 1009
8320.7 kPa | 1009
8335.5 kPa | 1009.1
8385.6 kPa | 1009
8400.7 kPa | 1009
8415.4 kPa | 1009.1
8430.1 kPa | 1009
8447.5 kPa | 1009
8463 kPa | 1009
8478 kPa | 1009.1
8496.3 kPa | 1009.1
8511.3 kPa | 1009
8529.1 kPa | 1009.1
8544.6 kPa | 1009.1
8560.6 kPa | 1009.1
8576.2 kPa | 1009.1
8594.8 kPa | 1009.1
8609.8 kPa | 1009.2
8625.5 kPa | 1009.1
8644.3 kPa | 1009.3
8659.6 kPa | 1009.2
8678.4 kPa | 1009.2
8694.4 kPa | 1009.1
8710.5 kPa | 1009.1
8729.5 kPa | 1009.2
8745.1 kPa | 1009.1
8761.5 kPa | 1009.1
8778.1 kPa | 1009.3
8797.7 kPa | 1009.2
8813.6 kPa | 1009.3
8833.4 kPa | 1009.1
8849.8 kPa | 1009.3
8865.8 kPa | 1009.3
8882.4 kPa | 1009.2
8902.4 kPa | 1009.2
8919.1 kPa | 1009.3
8935.3 kPa | 1009.3
8955.5 kPa | 1009.4
8972.2 kPa | 1009.2
8992.6 kPa | 1009.4
9009.6 kPa | 1009.3
9026.7 kPa | 1009.4
9043.4 kPa | 1009.5
9063.8 kPa | 1009.4
9081 kPa | 1009.3
9098.4 kPa | 1009.5
9118.9 kPa | 1009.4
9136.1 kPa | 1009.4
9156.6 kPa | 1009.4
9173.7 kPa | 1009.4
9191.1 kPa | 1009.5
9212.2 kPa | 1009.5
9230.4 kPa | 1009.5
9249.2 kPa | 1009.5
9266.9 kPa | 1009.5
